Key:
[1] = tested on: rat carotid artery balloon injury; experiment: Rat carotid artery balloon injury model; assay type: in vivo
[2] = Drug release from polymer coatings in plasma; assay type: physicochemical; conditions: citrated human plasma, 37°, changed daily; stable = less than 10% variation of the drug release rate
Protocol: (§1) A stent (e.g. a Multi-Link Vision stent, Guidant Corp.; or a DRIVER stent, Medtronic Corp.) is weighed and then mounted on a rotating or other support for coating with a polymeric or other synthetic or biological carrier used as a drug reservoir. In an exemplary carrier application procedure, while the stent is rotating, a 100 μl aliquot of a solution of polylactide glycolide, 0.75 mg/ml of pimecrolimus and 0.0015 mg/ml 2,6-di-tert-butyl-4-methylphenol dissolved in a 50:50 mixture of methanol and tetrahydrofuran, is coated onto it. The coated stent is removed from the support and allowed to air-dry. After a final weighing the amount of coating on the stent is determined.
Drug Release from Polymer Coatings in Plasma
Release of pimecrolimus in plasma is also studied. 1 cm pieces of a coated stent are put into 1 ml of citrated human plasma (from Helena Labs) in lyophilized form and reconstituted by adding 1 ml of sterile deionized water. Three sets of stent plasma solutions are incubated at 37° and the plasma is changed daily. Different assays are performed on the solution to determine the released pimecrolimus concentrations.

[3] = tested on: New Zealand White rabbit iliac arteries; experiment: Rabbit iliac stent model (in-stent restenosis); assay type: in vivo; conditions: oral gavage, vs placebo
Protocol: Inhibition of In-Stent Restenosis and Proximal and Distal Lesion Development at 28 Days in the Rabbit Iliac Stent Model A combined angioplasty and stenting procedure is performed in New Zealand White rabbit iliac arteries. Iliac artery balloon injury is performed by inflating a 3.0×9.0 mm angioplasty balloon in the mid-portion of the artery followed by “pull-back” of the catheter for 1 balloon length. Balloon injury is repeated 2 times, and a 3.0×12 mm stent is deployed at 6 atm for 30 seconds in the iliac artery. Balloon injury and stent placement is then performed on the contralateral iliac artery in the same manner. A post-stent deployment angiogram is performed. All animals receive oral aspirin 40 mg/day daily as anti-platelet therapy and are fed standard low-cholesterol rabbit chow. Twenty-eight days after stenting, animals are anesthetized and euthanized and the arterial tree is perfused at 100 mmHg with lactated Ringer's solution for several minutes, then perfused with 10% formalin at 100 mmHg for 15 minutes. The vascular section between the distal aorta and the proximal femoral arteries is excised and cleaned of periadventitial tissue. Three sections of artery are sampled: the stented section, the artery 5 mm immediately proximal to the stent and the artery 5 mm immediately distal to the stent is embedded in plastic. Sections are taken from the proximal, middle, and distal portions of each stent. Serial sections are also taken of the first 2 mm proximal and distal to the stent. Sections are stained with hematoxylin-eosin and Movat pentachrome stains. […] The neointima and neointimal thickness is measured both at and between the stent struts. The vessel area is measured as the area within the EEL. Cells staining positively as macrophages are counted in the sections taken from the stented area of artery. Data are expressed as mean ±SEM. Statistical analysis of the histologic data is accomplished using ANOVA due to the fact that two stented arteries are measured per animal with a mean generated per animal. […]

[4] = Drug release from polymer coatings in aqueous solution; assay type: physicochemical; conditions: PBS pH 7.4 or PEG/water 40/60 v/v, 37°, solutions changed daily; stable = less than 10% variation of the drug release rate
Protocol: as §1
Drug Release from Polymer Coatings in Aqueous Solution
Four 2 cm pieces of stents coated as described in Example 3 above are placed into 100 ml of PBS having a pH of 7.4. Another 4 pieces from each series are placed into 100 ml of PEG/water solution (40/60 v/v, MW of PEG=400). The stent pieces are incubated at 37° in a shaker. The buffer and PEG solutions are changed daily and different assays are performed on the solution to determine the released pimecrolimus concentrations. […] The term “stable pimecrolimus” means that less than 10% variation of the drug release rate is observed.

[5] = tested on: allogeneic kidney transplantation; conditions: oral administration; cited from earlier work

| Compound | constrictive remodeling ([1]; local administration to the adventitia) | infiltration of CD45+ leukocytes ([1]; local administration to the adventitia via catheter/Alzet minipump, day 1) | early and late neointimal lesions ([1]; local administration to the adventitia, early 9 days and late 21-28 days post-ballooning) | CD45-positive leukocyte infiltration into the vessel wall and adventitia ([1]; oral dosing, 1 day post-balloon injury) | neointimal lesion formation following balloon injury ([1]; oral dosing, at 9 and 12 days) | pimecrolimus release from coated stents in plasma [2] | extent of restenotic lesion formation ([3]; 28 days after stenting) | lesion formation in the portions of artery immediately proximal and immediately distal to the stent ([3]; 28 days) | number of inflammatory cells, especially in the area surrounding the stent struts ([3]; 28 days) | pimecrolimus release from coated stents [4] | minimum effective dose (MED) [5] [mg/kg] |
| --- | --- | --- | --- | --- | --- | --- | --- | --- | --- | --- | --- |
| CC[C@@H]1/C=C(\C)C[C@H](C)C[C@H](OC)[C@H]2O[C@@](O)(C(=O)C(=O)N3CCCC[C@H]3C(=O)O[C@H](/C(C)=C/[C@@H]3CC[C@H](Cl)[C@H](OC)C3)[C@H](C)[C@@H](O)CC1=O)[C@H](C)C[C@@H]2OC [pimecrolimus, {[1E-(1R,3R,4S)]1R,9S,12S,13R,14S,17R,18E,21S,23S,24R,25S,27R}-12-[2-(4-chloro-3-methoxycyclohexyl)-1-methylvinyl]-17-ethyl-1,14-dihydroxy-23,25-dimethoxy-13,19,21,27-tetramethyl-11,28,dioxa-4-azatricyclo [22.3.1.0(4,9)]octacos-18-ene-2,3,10,16-tetraone] | potent inhibition | potent inhibition | potent inhibition | significantly reduce | significantly reduce | stable pimecrolimus release | marked reduction | inhibited | significantly reduced | stable pimecrolimus release |  |
| C=CC[C@@H]1/C=C(\C)C[C@H](C)C[C@H](OC)[C@H]2O[C@@](O)(C(=O)C(=O)N3CCCC[C@H]3C(=O)O[C@H](/C(C)=C/[C@@H]3CC[C@@H](O)[C@H](OC)C3)[C@H](C)[C@@H](O)CC1=O)[C@H](C)C[C@@H]2OC [tacrolimus] |  |  |  |  |  |  |  |  |  |  | 14 |

Reference: patent US20060035879A1, “Organic Compounds” (priority 2002, published 2006)
